# From patent US6964949B2, “Pharmaceutical compositions for promoting the growth of gram-positive bacilli and increasing the acidity in the vagina and the use thereof” (Shanghai Jiao Da Onlly Co., Ltd., priority 2000, dated 2005)
# What was measured:
# [1] = system: C. albicans, C. tropicalis; experiment: Fluconazole in Sucrose Broth, Group 4 (Candidal group): turbidity and Gram-stained smear; assay type: cell-based, Candida albicans, Candida tropicalis; design: key to Turbidity, Group 4: ++: The cultural fluid was heavily turbid; +: The cultural fluid was turbid; +/−: The turbidity of the cultural fluid was not affirmative; conditions: 18 hours; for Turbidity, Group 4: 37° C., candle jar
# Procedure: (§1) • 1. Materials: • Sucrose Broth: 10.0% sucrose, 2.0% yeast extract, K2HPO40.5%, MgSO40.05%, MnSO40.1%, pH adjusted to 6.2, sterilized. • Anti-fungi drug: Fluconazole • Clinically isolated Lactobacillus strains: Lactobacillus acidophilus, Lactobacillus crispatus, and Lactobacillus jensenii. Three lactobacillus suspensions were prepared separately from each of these three lactobacillus strains. • Clinically isolated Candida strains: Candida albicans and Candida tropicalis. Two Candidal suspensions were prepared separately from each of these two candida strains. • 2.
# (§2) • There were six tubes in each group and each tube contained 2ml Sucrose Broth and different concentration of Fluconazole, as shown in Table 1. • The turbidity values of three lactobacillus suspensions and two Candidal suspensions were tested by Turbidimeter and adjusted to 0.3. 50 ul of each prepared lactobacillus suspension and Candidal suspension were separately added into tubes according to Table 1. • All of these experimental tubes were put into candle jars as soon as the lactobacillus suspensions and candidal suspensions were added, and then incubated at 37° C. for 18 hours. • After 18 hours' incubation the turbidity of each tube was examined and Gram-stained smear of cultural fluid of corresponding tube was observed under microscopy to check microbes. Results
# [2] = system: L. crispatus, C. albicans, C. tropicalis; experiment: Fluconazole in Sucrose Broth, Group 2 co-culture: turbidity and Gram-stained smear; assay type: cell-based; design: key to Turbidity, Group 2: ++: The cultural fluid was heavily turbid; +: The cultural fluid was turbid; +/−: The turbidity of the cultural fluid was not affirmative; key to Microbes (Gram-stained smear), Group 2: Lb: Lactobacilli; Candida; conditions: 18 hours, 37° C., candle jar
# Procedure: as §1, §2
# [3] = system: L. jensenii, C. albicans, C. tropicalis; experiment: Fluconazole in Sucrose Broth, Group 3 co-culture: turbidity and Gram-stained smear; assay type: cell-based, Lactobacillus jensenii, Candida albicans, Candida tropicalis; design: key to Turbidity, Group 3: ++: The cultural fluid was heavily turbid; +: The cultural fluid was turbid; +/−: The turbidity of the cultural fluid was not affirmative; key to Microbes (Gram-stained smear), Group 3: Lb: Lactobacilli; Candida; conditions: 18 hours, 37° C., candle jar
# Procedure: as §1, §2
# [4] = system: L. acidophilus, C. albicans, C. tropicalis; experiment: Fluconazole in Sucrose Broth, Group 1 co-culture: turbidity and Gram-stained smear; assay type: cell-based; design: key to Turbidity, Group 1: ++: The cultural fluid was heavily turbid; +: The cultural fluid was turbid; +/−: The turbidity of the cultural fluid was not affirmative; key to Microbes (Gram-stained smear), Group 1: Lb: Lactobacilli; Candida; conditions: 18 hours, 37° C., candle jar
# Procedure: as §1, §2
# [5] = system: three Lactobacillus strains; experiment: Fluconazole in Sucrose Broth: growth of the three Lactobacillus strains (Groups 1-3); assay type: cell-based; conditions: 400 ug/ml of Fluconazole, 18 hours
# Procedure: as §1, §2
# [6] = system: vaginal secretion specimen of a patient suffering from typical bacterial vaginosis; experiment: Experiment Example 2: pH of culture samples (production of acids); assay type: cell-based; conditions: 10.0% saccharide, 1.0% yeast extract, 1.6% xanthan gum (dextrin 0.5%, starch none), pH 6.2, candle jar, 37° C.
# From the text: (§3) • (1)The preparation of the compositions: Different saccharides were used respectively to prepare the following compositions according to the methods mentioned above: glucose, fructose, galactose, mannose, maltose, sucrose, lactose, lactulose, mycose, cellobiose, melibiose, melitose, malto-oligosaccharide, isomaltooligosaccharide and fructooligosaccharide, dextrin, starch, and glycogen: • A. 5% glucose, 1.0% yeast extract, 1.6% xanthan gum, pH adjusted to 6.2; • B. 5% fructose, 1.0% yeast extract, 1.6% xanthan gum, pH adjusted to 6.2; • C. 5% galactose, 1.0% yeast extract, 1.6% xanthan gum, pH adjusted to 6.2; • D. 5% mannose, 1.0% yeast extract, 1.6% xanthan gum, pH adjusted to 6.2; • E. 10.0% maltose, 1.0% yeast extract, 1.6% xanthan gum, pH adjusted to 6.2; • F. 10.0% sucrose, 1.0% yeast extract, 1.6% xanthan gum, pH adjusted to 6.2; • G. 10.0% lactose, 1.0% yeast extract, 1.6% xanthan gum, pH adjusted to 6.2; • H. 10.0% lactulose, 1.0% yeast extract, 1.6% xanthan gum, pH adjusted to 6.2; • I. 10.0% cellobiose, 1.0% yeast extract, 1.6% xanthan gum, pH adjusted to 6.2; • J. 10.0% mycose, 1.0% yeast extract, 1.6% xanthan gum, pH adjusted to 6.2; • K. 10.0% melibiose, 1.0% yeast extract, 1.6% xanthan gum, pH adjusted to 6.2; • L. 10.0% melitose, 1.0% yeast extract, 1.6% xanthan gum, pH adjusted to 6.2; • M. 10.0% maltooligosaccharide, 1.0% yeast extract, 1.6% xanthan gum, pH adjusted to 6.2; • N. 10.0% isomaltooligosaccharide, 1.0% yeast extract, 1.6% xanthan gum, pH adjusted to 6.2; • O. 10.0% fructooligosaccharide, 1.0% yeast extract, 1.6% xanthan gum, pH adjusted to 6.2; • P. 10.0% dextrin, 1.0% yeast extract, 0.5% xanthan gum, pH adjusted to 6.2; • Q. 10.0% starch, 1.0% yeast extract, pH adjusted to 6.2; • R. 10.0% glycogen, 1.0% yeast extract, 1.6% xanthan gum, pH adjusted to 6.2. • (2)The preparation of the test tubes: The compositions prepared above were filled into test tubes, with each tube containing 5 ml, sterilized, and kept until use for experiment. • (3) Specimen suspension: Vaginal secretion was taken from one of the patients suffering from typical bacterial vagmosis with a cotton swab, then the swab was washed in 2 ml sterilized Trypcase-soy Broth immediately, and thus the specimen suspension was ready. […] Then the tubes were placed in a candle jar and cultivated at 37° C. After 24 hours and 48 hours' culture, culture samples were taken respectively from each of the tubes, then the Gram smears of the samples were observed and the pH values of culture samples were tested. […] Meanwhile the pH values in most of the composition tubes decreased to different levels. […] And maltose and sucrose exert better effect in promoting the growth of Gram-positive bacilli and the production of acids than that of the other kinds of oligosaccharides.
# Gram-negative cocci = experiment: Experiment Example 2: comparison of saccharides, specimen culture, Gram smear; assay type: cell-based; conditions: 10.0% saccharide, 1.0% yeast extract, 1.6% xanthan gum (dextrin 0.5%, starch none), pH 6.2, candle jar, 37° C.
# From the text: as §3
# Gram-positive cocci = experiment: as above; assay type: cell-based; conditions: 10.0% saccharide, 1.0% yeast extract, 1.6% xanthan gum (dextrin 0.5%, starch none), pH 6.2, candle jar, 37° C.
# From the text: as §3
# Gram-positive bacilli = experiment: as above; assay type: cell-based; conditions: 10.0% saccharide, 1.0% yeast extract, 1.6% xanthan gum (dextrin 0.5%, starch none), pH 6.2, candle jar, 37° C.
# From the text: as §3
# Gram-negative bacilli = experiment: as above; assay type: cell-based; conditions: 10.0% saccharide, 1.0% yeast extract, 1.6% xanthan gum (dextrin 0.5%, starch none), pH 6.2, candle jar, 37° C.
# From the text: as §3
compound,measurement,setting,value
OC(Cn1cncn1)(Cn1cncn1)c1ccc(F)cc1F [Fluconazole],growth of the two Candidal strains,[1]; 25 ug/ml or greater concentration of Fluconazole,inhibited the growth
same,"Turbidity, Group 4",[1]; Fluconazole 25 ug/ml,+/−
same,"Turbidity, Group 4",[1]; Fluconazole 50 ug/ml,+/−
same,"Turbidity, Group 4",[1]; Fluconazole 100 ug/ml,+/−
same,"Turbidity, Group 4",[1]; Fluconazole 200 ug/ml,+/−
same,"Turbidity, Group 4",[1]; Fluconazole 400 ug/ml,+/−
same,"Microbes (Gram-stained smear), Group 2",[2]; Fluconazole 25 ug/ml,Lb
same,"Turbidity, Group 2",[2]; Fluconazole 25 ug/ml,++
same,"Microbes (Gram-stained smear), Group 2",[2]; Fluconazole 50 ug/ml,Lb
same,"Turbidity, Group 2",[2]; Fluconazole 50 ug/ml,++
same,"Microbes (Gram-stained smear), Group 2",[2]; Fluconazole 100 ug/ml,Lb
same,"Turbidity, Group 2",[2]; Fluconazole 100 ug/ml,++
same,"Microbes (Gram-stained smear), Group 2",[2]; Fluconazole 200 ug/ml,Lb
same,"Turbidity, Group 2",[2]; Fluconazole 200 ug/ml,++
same,"Microbes (Gram-stained smear), Group 2",[2]; Fluconazole 400 ug/ml,Lb
same,"Turbidity, Group 2",[2]; Fluconazole 400 ug/ml,++
same,"Microbes (Gram-stained smear), Group 3",[3]; Fluconazole 25 ug/ml,Lb
same,"Turbidity, Group 3",[3]; Fluconazole 25 ug/ml,++
same,"Microbes (Gram-stained smear), Group 3",[3]; Fluconazole 50 ug/ml,Lb
same,"Turbidity, Group 3",[3]; Fluconazole 50 ug/ml,++
same,"Microbes (Gram-stained smear), Group 3",[3]; Fluconazole 100 ug/ml,Lb
same,"Turbidity, Group 3",[3]; Fluconazole 100 ug/ml,++
same,"Microbes (Gram-stained smear), Group 3",[3]; Fluconazole 200 ug/ml,Lb
same,"Turbidity, Group 3",[3]; Fluconazole 200 ug/ml,++
same,"Microbes (Gram-stained smear), Group 3",[3]; Fluconazole 400 ug/ml,Lb
same,"Turbidity, Group 3",[3]; Fluconazole 400 ug/ml,++
same,"Microbes (Gram-stained smear), Group 1",[4]; Fluconazole 25 ug/ml,Lb
same,"Turbidity, Group 1",[4]; Fluconazole 25 ug/ml,++
same,"Microbes (Gram-stained smear), Group 1",[4]; Fluconazole 50 ug/ml,Lb
same,"Turbidity, Group 1",[4]; Fluconazole 50 ug/ml,++
same,"Microbes (Gram-stained smear), Group 1",[4]; Fluconazole 100 ug/ml,Lb
same,"Turbidity, Group 1",[4]; Fluconazole 100 ug/ml,++
same,"Microbes (Gram-stained smear), Group 1",[4]; Fluconazole 200 ug/ml,Lb
same,"Turbidity, Group 1",[4]; Fluconazole 200 ug/ml,++
same,"Microbes (Gram-stained smear), Group 1",[4]; Fluconazole 400 ug/ml,Lb
same,"Turbidity, Group 1",[4]; Fluconazole 400 ug/ml,++
same,growth of three Lactobacillus strains,[5],didn't inhibit the growth
"OC[C@H]1O[C@@H](O[C@@H]2[C@@H](CO)OC(O)(CO)[C@H]2O)[C@H](O)[C@@H](O)[C@H]1O (mixture of isomers) [Lactulose, lactulose]","pH, 24 hours-culture",[6],5.8-6.2
same,"pH, 48 hours-culture",[6],6.2
same,"Bacteria G − c (Gram-negative cocci), 24 hours-culture",Gram-negative cocci,"G − c, − (No or less than one bacterium per field of version under oil-immersion lens)"
same,"Bacteria G − c (Gram-negative cocci), 48 hours-culture",Gram-negative cocci,"G − c, − (No or less than one bacterium per field of version under oil-immersion lens)"
same,"Bacteria G + c (Gram-positive cocci), 24 hours-culture",Gram-positive cocci,"G + c, + (1-9 bacteria per field of vision under oil-immersion lens)"
same,"Bacteria G + c (Gram-positive cocci), 48 hours-culture",Gram-positive cocci,"G + c, + (1-9 bacteria per field of vision under oil-immersion lens)"
same,"Bacteria G + b (Gram-positive bacilli), 24 hours-culture",Gram-positive bacilli,"G + b, +++ (About 100 bacteria or more per field vision under oil-immersion lens, even uncountable)"
same,"Bacteria G + b (Gram-positive bacilli), 48 hours-culture",Gram-positive bacilli,"G + b, ++ (About 10-99 bacteria per field of vision under oil-immersion lens)"
same,"Bacteria G − b (Gram-negative bacilli), 24 hours-culture",Gram-negative bacilli,"G − b, + (1-9 bacteria per field of vision under oil-immersion lens)"
same,"Bacteria G − b (Gram-negative bacilli), 48 hours-culture",Gram-negative bacilli,"G − b, + (1-9 bacteria per field of vision under oil-immersion lens)"
starch,"pH, 24 hours-culture",[6],6.7
same,"pH, 48 hours-culture",[6],6.2
same,"Bacteria G − c (Gram-negative cocci), 24 hours-culture",Gram-negative cocci,"G − c, − (No or less than one bacterium per field of version under oil-immersion lens)"
same,"Bacteria G − c (Gram-negative cocci), 48 hours-culture",Gram-negative cocci,"G − c, − (No or less than one bacterium per field of version under oil-immersion lens)"
same,"Bacteria G + c (Gram-positive cocci), 24 hours-culture",Gram-positive cocci,"G + c, + (1-9 bacteria per field of vision under oil-immersion lens)"
same,"Bacteria G + c (Gram-positive cocci), 48 hours-culture",Gram-positive cocci,"G + c, + (1-9 bacteria per field of vision under oil-immersion lens)"
same,"Bacteria G + b (Gram-positive bacilli), 24 hours-culture",Gram-positive bacilli,"G + b, ++ (About 10-99 bacteria per field of vision under oil-immersion lens)"
same,"Bacteria G + b (Gram-positive bacilli), 48 hours-culture",Gram-positive bacilli,"G + b, ++ (About 10-99 bacteria per field of vision under oil-immersion lens)"
same,"Bacteria G − b (Gram-negative bacilli), 24 hours-culture",Gram-negative bacilli,"G − b, ++ (About 10-99 bacteria per field of vision under oil-immersion lens)"
same,"Bacteria G − b (Gram-negative bacilli), 48 hours-culture",Gram-negative bacilli,"G − b, ++ (About 10-99 bacteria per field of vision under oil-immersion lens)"
